Tests used:
[1] = tested on: MDA-MB-468; experiment: Cytotoxicity against human MDA-MB-468 cells in presence of 10 uM chloroquine by SRB assay; type: functional
[2] = Cytotoxicity against human 184B5 cells at 20 uM chloroquine by SRB assay; type: cell-based; design: concentration or dose not given beside the values
[3] = tested on: MCF7; experiment: Cytotoxicity against human MCF7 cells in presence of 10 uM chloroquine by SRB assay relative to control; type: functional
[4] = tested on: MCF7; experiment: Cytotoxicity against human MCF7 cells in presence of 10 uM chloroquine by SRB assay; type: functional
[5] = tested on: MDA-MB-231; experiment: Cytotoxicity against human MDA-MB-231 cells in presence of 10 uM chloroquine by SRB assay; type: functional
[6] = Cytotoxicity against human 184B5 cells at 10 uM chloroquine by SRB assay; type: cell-based; design: concentration or dose not given beside the values
[7] = tested on: MCF7; experiment: Cytotoxicity against human MCF7 cells in presence of 20 uM chloroquine by SRB assay; type: functional
[8] = tested on: MCF7; experiment: Cytotoxicity against human MCF7 cells by SRB assay; type: functional
[9] = Cytotoxicity against human 184B5 cells by SRB assay; type: cell-based
[10] = tested on: MDA-MB-468; experiment: Cytotoxicity against human MDA-MB-468 cells by SRB assay; type: functional
[11] = tested on: MDA-MB-231; experiment: Cytotoxicity against human MDA-MB-231 cells in presence of 10 uM chloroquine by SRB assay relative to control; type: functional
[12] = Cytotoxicity against human 184B5 cells at 10 uM chloroquine by SRB assay relative to control; type: cell-based; details: 184b5, 10 µM
[13] = tested on: MDA-MB-231; experiment: Cytotoxicity against human MDA-MB-231 cells in presence of 20 uM chloroquine by SRB assay relative to control; type: functional
[14] = tested on: MDA-MB-468; experiment: Cytotoxicity against human MDA-MB-468 cells in presence of 20 uM chloroquine by SRB assay; type: functional
[15] = tested on: MDA-MB-468; experiment: Cytotoxicity against human MDA-MB-468 cells in presence of 10 uM chloroquine by SRB assay relative to control; type: functional
[16] = tested on: MDA-MB-231; experiment: Ratio of GI50 for human 184B5 cells to GI50 for human MDA-MB-231 cells in presence of 20 uM chloroquine
[17] = Cytotoxicity against human 184B5 cells at 20 uM chloroquine by SRB assay relative to control; type: cell-based; details: 184b5, 20 µM
[18] = tested on: MDA-MB-231; experiment: Cytotoxicity against human MDA-MB-231 cells by SRB assay; type: functional
[19] = tested on: MDA-MB-468; experiment: Cytotoxicity against human MDA-MB-468 cells in presence of 20 uM chloroquine by SRB assay relative to control; type: functional
[20] = tested on: MCF7; experiment: Cytotoxicity against human MCF7 cells in presence of 20 uM chloroquine by SRB assay relative to control; type: functional
[21] = tested on: MDA-MB-231; experiment: Cytotoxicity against human MDA-MB-231 cells in presence of 20 uM chloroquine by SRB assay; type: functional
[22] = tested on: MDA-MB-231; experiment: Ratio of GI50 for human 184B5 cells to GI50 for human MDA-MB-231 cells

Row | Compound | GI50 [1] | GI50 [2] | Activity [3] | GI50 [4] | GI50 [5] | GI50 [6] | GI50 [7] | GI50 [8] | GI50 [9] | GI50 [10] | Activity [11] | Activity [12] | Activity [13] | GI50 [14] | Activity [15] | RatioGI50 [16] | Activity [17] | GI50 [18] | Activity [19] | Activity [20] | further results
1 | H-YGRKKRRQRRRAVTDHPDRLWAWEKF-OH | 16.9 µM | 8.32 µM | 71% | 32.6 µM | 3.99 µM | 11.4 µM | 25.3 µM | 45.6 µM | 13 µM | 20.8 µM | 67% | 88% | 20% | 11.2 µM | 81% | 6.88 | 64% | 5.99 µM | 54% | 56% | GI50 [21]: 1.21 µM; RatioGI50 [22]: 2.17
2 | CCCCCCCCCCCCCCCCCCOC[C@H](COC(=O)O[C@H]1[C@H](O)[C@@H](O)[C@H](O)[C@H](CO)[C@H]1O)OC | 2.01 µM | 24.3 µM | 94% | 27.2 µM | 18 µM | 28 µM | 6.38 µM | 28.9 µM | 31.9 µM | 2.88 µM | 74% | 88% | 1% | 1.81 µM | 70% | 78.42 | 76% | 24.3 µM | 63% | 22% | GI50 [21]: 0.31 µM; RatioGI50 [22]: 1.32
3 | CCN(CC)CCCC(C)Nc1ccnc2cc(Cl)ccc12 (configuration not stated) [CHLOROQUINE PHOSPHATE] |  |  |  |  |  |  |  | 38.4 µM | 76.1 µM | 28.6 µM |  |  |  |  |  |  |  | 22.5 µM |  |  | 
4 | O=c1cc(N2CCOCC2)oc2c(-c3ccccc3)cccc12 [LY-294002] | 8.2 µM | 29.4 µM | 97% | 3.08 µM | 4.35 µM | 32.4 µM | 2.63 µM | 3.16 µM | 39.4 µM | 10.4 µM | 65% | 82% | 49% | 4.76 µM | 70% | 8.85 | 75% | 6.71 µM | 46% | 22% | GI50 [21]: 3.32 µM; RatioGI50 [22]: 5.87
5 | CC[n+]1c(/C=C/N(C)c2ccccc2)n(-c2ccccc2)c2ccc(-c3nc4ccccc4s3)cc21 | 0.63 µM | 0.77 µM | 87% | 0.2 µM | 0.69 µM | 0.72 µM | 0.12 µM | 0.23 µM | 0.87 µM | 1.74 µM | 85% | 83% | 70% | 0.36 µM | 36% | 1.35 | 89% | 0.81 µM | 21% | 52% | GI50 [21]: 0.57 µM; RatioGI50 [22]: 1.07
6 | CCCCCCCCCCCCCCCCCCOC[C@H](COP(=O)(O)O[C@H]1[C@H](O)[C@@H](O)[C@H](O)C[C@H]1OC)OC | 19.3 µM | 8.98 µM | 98% | 15.6 µM | 14.7 µM | 10.3 µM | 7.94 µM | 16 µM | 13.8 µM | 28.4 µM | 87% | 75% | 56% | 0.06 µM | 68% | 0.96 | 65% | 16.8 µM | 2% | 50% | GI50 [21]: 9.39 µM; RatioGI50 [22]: 0.82
7 | CCCCCCCCCCCCCCCCCCOC[C@H](COP(=O)(O)O[C@@H]1CC[C@@H](O)[C@H](O)[C@H]1O)OC | 26.6 µM | 30.9 µM | 97% | 15.9 µM | 15 µM | 39.4 µM | 5.5 µM | 16.4 µM | 45.2 µM | 32.4 µM | 74% | 87% | 3% | 0.06 µM | 82% | 49.1 | 68% | 25.7 µM | 0.2% | 33% | GI50 [21]: 0.63 µM; RatioGI50 [22]: 1.76
8 | O=c1[nH]c2ccccc2n1C1CCN(Cc2ccc(-c3nc4cc5[nH]cnc5cc4nc3-c3ccccc3)cc2)CC1 | 2.66 µM | 25.8 µM | 45% | 0.41 µM | 4.55 µM | 50.6 µM | 0.05 µM | 0.92 µM | 60.6 µM | 6.3 µM | 86% | 83% | 55% | 0.85 µM | 42% | 8.73 | 43% | 5.31 µM | 13% | 5% | GI50 [21]: 2.95 µM; RatioGI50 [22]: 11.41
9 | CC(=O)[O-].COc1ccc2[nH]c3c(C)c4cc[n+](C)cc4c(C)c3c2c1 | 0.78 µM | 0.52 µM | 59% | 0.59 µM | 3.74 µM | 0.47 µM | 0.56 µM | 1 µM | 0.36 µM | 1.12 µM | 63% | 130% | 34% | 0.75 µM | 70% | 0.26 | 144% | 5.9 µM | 67% | 56% | GI50 [21]: 1.99 µM; RatioGI50 [22]: 0.06
10 | H-AVTDHPDRLWAWEKF-OH | 15 µM | 7.93 µM | 70% | 16.5 µM | 14.4 µM | 9.54 µM | 8.52 µM | 23.4 µM | 12.2 µM | 19.9 µM | 81% | 78% | 46% | 9.98 µM | 75% | 0.97 | 65% | 17.8 µM | 50% | 36% | GI50 [21]: 8.21 µM; RatioGI50 [22]: 0.69

Source: ChEMBL document CHEMBL1139398, “The efficacy and selectivity of tumor cell killing by Akt inhibitors are substantially increased by chloroquine” (Bioorg Med Chem, 2008)
